# How the values were obtained:
# [1] = system: Ba/F3 EGFR del19/T790M/C797S cells; test: Ba/F3 EGFR del19/T790M/C797S cell growth inhibition test (CellTiter-Glo, 72 hours); type: cell-based; details: Ba/F3 cell line overexpressing EGFR del19/T790M/C797S, 72 hours, CellTiter-Glo; read-out: Ba/F3 EGFR del19/T790M/C797S cells, GI50;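 also: compounds tested in tenfold steps from 10 µM down to 0.1 nM, with luminescence read on a microplate reader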
# Procedure: Specifically, the cell line stored in a liquid nitrogen tank was taken out, rapidly dissolved at 37° C., and thereafter centrifuged to remove the cryopreservation medium. The recovered cell pellets were well mixed in a culture medium, put into a culture flask, and passaged under conditions of 37° C. and 5% carbon dioxide to stabilize the cells to the logarithmic growth phase. Thereafter, cells were taken from the flask, centrifuged to remove the culture medium, washed with Dulbecco's phosphate buffered saline (DPBS), and then centrifuged again to remove DPBS, and then diluted with a culture medium to have 1×10^5 cells/ml. The diluted cells were dispensed into a 96-well plate at 100 μl per well. […] The DMSO solution containing each compound was diluted with a culture medium to a concentration of 30 μM, and then tenfold serial dilution was used to prepare a solution diluted upto 0.3 nM (in order to reach a final DMSO concentration of 1% or less).
# 50 μl of a test solution of each compound was added each time to the 96-well plate in which the cells were dispensed, thus reaching a final concentration of 10 μM to 0.1 nM in 150 μl per well. The cells treated with the test solution were cultured under conditions of 37° C. and 5% carbon dioxide for 72 hours. After the 96-well plate in which the cells were cultured was acclimated to room temperature for 30 minutes, CellTiter-Glo® Luminescent Cell Assay Reagent (CTG, Promega) was dispensed at 50 μl per well. After stabilizing luminescence signals for 10 minutes, the luminescence intensity was measured with a microplate reader.
# [2] = system: PC9 EGFR del19/T790M/C797S cells; test: PC9 EGFR del19/T790M/C797S cell growth inhibition test (CellTiter-Glo, 72 hours); type: cell-based; details: Homo sapiens, PC-9, PC9 cell line overexpressing EGFR del19/T790M/C797S
# Procedure: For cell growth conditions, an RPMI Medium 1640 (1×) containing 10% FBS and 1% penicillin/straptomycin (Gibco BRL) was used.
# Specifically, the cell line stored in a liquid nitrogen tank was taken out, rapidly dissolved at 37° C., and thereafter centrifuged to remove the cryopreservation medium. The recovered cell pellets were well mixed in a culture medium, put into a culture flask, and passaged under conditions of 37° C. and 5% carbon dioxide to stabilize the cells to logarithmic cell growth phase. Thereafter, cells were taken from the flask, centrifuged to remove the culture medium, washed with Dulbecco's phosphate buffered saline (DPBS), and then centrifuged again to remove DPBS, and then diluted with a culture medium to have 1×10^5 cells/ml. The diluted cells were dispensed into a 96-well plate at 100 μl per well. The compounds prepared in the above examples were each dissolved in 99.5% dimethylsulfoxide (hereinafter, DMSO, cell culture grade) to a concentration of 10 mM. The DMSO solution containing each compound was diluted with a culture medium to a concentration of 30 μM, and then tenfold serial dilution was used to prepare a solution diluted upto 0.3 nM (in order to reach a final DMSO concentration of 1% or less).
# The cells treated with the test solution were cultured under conditions of 37° C. and 5% carbon dioxide for 72 hours. After the 96-well plate in which the cells were cultured was acclimated to room temperature for 30 minutes, CellTiter-Glo® Luminescent Cell Assay Reagent (CTG, Promega) was dispensed at 50 μl per well. After stabilizing luminescence signals for 10 minutes, the luminescence intensity was measured with a microplate reader.
# Based on the measured value, a […] value of each compound, which is the concentration at which cell growth is inhibited by 50%, was calculated with respect to 100% of the value obtained by subtracting the initial cell density value of a well not treated with a test material from the final cell density value thereof. The GI50 value of each compound was calculated using nonlinear regression of GraphPad Prism; log[inhibitor] vs. normalized response analysis.
# [3] = target: T1, EGFR L858R/T790M/C797S (Homo sapiens, UniProt P00533, C797S/L858R/T790M); test: EGFR enzyme inhibitory activity evaluation (Z'-LYTE kinase assay), L858R/T790M/C797S; type: biochemical
# T1 construct: purchased Thermo Fisher Scientific Inc
# T1 sequence (P00533 25-1210 T790M/C797S/L858R): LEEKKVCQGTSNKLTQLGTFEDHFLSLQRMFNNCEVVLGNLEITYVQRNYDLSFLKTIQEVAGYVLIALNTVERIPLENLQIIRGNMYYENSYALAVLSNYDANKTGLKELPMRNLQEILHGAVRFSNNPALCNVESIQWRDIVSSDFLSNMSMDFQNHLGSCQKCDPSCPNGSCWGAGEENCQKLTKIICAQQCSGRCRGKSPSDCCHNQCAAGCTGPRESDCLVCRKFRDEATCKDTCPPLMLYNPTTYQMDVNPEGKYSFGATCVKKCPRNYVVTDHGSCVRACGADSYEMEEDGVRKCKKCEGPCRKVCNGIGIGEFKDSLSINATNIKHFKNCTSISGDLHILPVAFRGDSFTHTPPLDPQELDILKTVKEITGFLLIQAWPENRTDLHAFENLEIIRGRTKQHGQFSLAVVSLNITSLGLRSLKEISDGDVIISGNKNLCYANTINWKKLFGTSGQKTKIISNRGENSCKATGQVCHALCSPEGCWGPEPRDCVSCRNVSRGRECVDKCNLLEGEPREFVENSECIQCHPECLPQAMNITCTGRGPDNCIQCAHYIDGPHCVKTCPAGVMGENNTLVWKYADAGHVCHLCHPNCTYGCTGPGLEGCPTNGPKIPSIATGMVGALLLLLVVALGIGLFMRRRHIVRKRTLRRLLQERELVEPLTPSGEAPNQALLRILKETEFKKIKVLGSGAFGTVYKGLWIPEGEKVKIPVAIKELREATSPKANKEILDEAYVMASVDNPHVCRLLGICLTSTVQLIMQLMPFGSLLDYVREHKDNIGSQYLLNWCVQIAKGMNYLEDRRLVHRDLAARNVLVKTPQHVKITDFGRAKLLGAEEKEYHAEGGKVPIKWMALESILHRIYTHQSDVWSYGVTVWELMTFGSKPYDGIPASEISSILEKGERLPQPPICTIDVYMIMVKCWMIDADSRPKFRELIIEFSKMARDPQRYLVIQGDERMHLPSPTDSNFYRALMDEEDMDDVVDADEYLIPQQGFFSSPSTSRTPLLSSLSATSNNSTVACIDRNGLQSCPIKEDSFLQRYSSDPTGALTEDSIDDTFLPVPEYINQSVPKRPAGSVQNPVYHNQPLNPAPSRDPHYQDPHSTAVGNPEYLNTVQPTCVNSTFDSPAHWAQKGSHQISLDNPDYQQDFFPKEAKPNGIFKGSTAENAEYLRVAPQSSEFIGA
# Procedure: (§1) For this, a Z′-LYTE kinase assay kit (ThermoFisher Scientific, PV3191) was used, and the kinases used were purchased from Thermo Fisher Scientific Inc. A simple test method is summarized as follows.
# (§2) Each kinase was diluted to a concentration of 7-45 ng/assay using a kinase buffer (50 mM HEPES (pH 7.5), 10 mM MgCl2, 4 mM MnCl2, 2 mM DTT, 1 mM EGTA, 0.01% BRIJ-35, or 50 mM HEPES (pH 6.5), 10 mM MgCl2, 1 mM EGTA, 0.01% BRIJ-35, 0.02% NaN3). The test was performed on 384 well plates (well polystyrene flat-bottomed plates). First, after 5 μl of a diluted compound solution was added, a protein substrate at a concentration as specified in the kit, 10 μl of a kinase mixed solution, and 5 μl of a 10-100 μM ATP solution were added to the sample and reacted at room temperature for 60 minutes in a stirrer. Thereafter, 10 μl of a coloring solution was added each to cause a fluorescence reaction of the peptide substrate for 60 minutes, and 10 μl of a stopping solution was added each to terminate the reaction.
# [4] = target: T2, EGFR T790M/L858R (Homo sapiens, UniProt P00533, L858R/T790M); test: EGFR enzyme inhibitory activity evaluation (Z'-LYTE kinase assay), T790M/L858R; type: biochemical
# T2 construct: purchased Thermo Fisher Scientific Inc
# T2 sequence (P00533 25-1210 T790M/L858R): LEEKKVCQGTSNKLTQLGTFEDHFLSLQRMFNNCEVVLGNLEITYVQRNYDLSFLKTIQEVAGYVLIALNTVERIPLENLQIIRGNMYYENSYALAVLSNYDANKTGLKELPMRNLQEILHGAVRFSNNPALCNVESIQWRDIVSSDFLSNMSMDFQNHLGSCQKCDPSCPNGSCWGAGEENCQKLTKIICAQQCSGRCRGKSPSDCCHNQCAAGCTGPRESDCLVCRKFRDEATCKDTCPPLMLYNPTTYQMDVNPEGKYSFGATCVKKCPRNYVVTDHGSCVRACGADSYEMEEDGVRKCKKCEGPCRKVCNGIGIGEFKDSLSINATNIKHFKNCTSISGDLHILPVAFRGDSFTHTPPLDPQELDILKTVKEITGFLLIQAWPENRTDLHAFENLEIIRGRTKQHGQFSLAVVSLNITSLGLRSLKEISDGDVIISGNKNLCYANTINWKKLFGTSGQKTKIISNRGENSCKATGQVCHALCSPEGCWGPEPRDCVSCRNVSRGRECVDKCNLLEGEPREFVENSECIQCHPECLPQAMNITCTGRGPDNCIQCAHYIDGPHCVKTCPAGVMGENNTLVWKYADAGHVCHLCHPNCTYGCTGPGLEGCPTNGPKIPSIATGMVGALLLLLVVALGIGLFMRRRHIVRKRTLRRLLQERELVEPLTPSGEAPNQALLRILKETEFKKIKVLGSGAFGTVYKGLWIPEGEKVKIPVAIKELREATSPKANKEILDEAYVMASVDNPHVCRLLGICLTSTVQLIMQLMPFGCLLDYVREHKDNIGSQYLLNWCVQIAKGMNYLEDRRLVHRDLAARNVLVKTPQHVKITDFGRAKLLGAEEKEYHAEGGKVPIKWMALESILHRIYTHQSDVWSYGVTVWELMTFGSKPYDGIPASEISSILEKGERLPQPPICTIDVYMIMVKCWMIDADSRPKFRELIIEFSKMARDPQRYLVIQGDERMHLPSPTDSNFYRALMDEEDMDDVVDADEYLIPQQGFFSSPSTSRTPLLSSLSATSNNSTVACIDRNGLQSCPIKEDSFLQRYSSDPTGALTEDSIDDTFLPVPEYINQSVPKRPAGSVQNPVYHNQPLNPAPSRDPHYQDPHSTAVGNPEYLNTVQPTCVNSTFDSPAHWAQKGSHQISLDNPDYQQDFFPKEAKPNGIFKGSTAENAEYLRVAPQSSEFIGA
# Procedure: as §1, §2
# [5] = target: T3, EGFR WT (Homo sapiens, UniProt P00533); test: EGFR enzyme inhibitory activity evaluation (Z'-LYTE kinase assay), WT; type: biochemical
# T3 construct: purchased Thermo Fisher Scientific Inc
# T3 sequence (P00533 25-1210): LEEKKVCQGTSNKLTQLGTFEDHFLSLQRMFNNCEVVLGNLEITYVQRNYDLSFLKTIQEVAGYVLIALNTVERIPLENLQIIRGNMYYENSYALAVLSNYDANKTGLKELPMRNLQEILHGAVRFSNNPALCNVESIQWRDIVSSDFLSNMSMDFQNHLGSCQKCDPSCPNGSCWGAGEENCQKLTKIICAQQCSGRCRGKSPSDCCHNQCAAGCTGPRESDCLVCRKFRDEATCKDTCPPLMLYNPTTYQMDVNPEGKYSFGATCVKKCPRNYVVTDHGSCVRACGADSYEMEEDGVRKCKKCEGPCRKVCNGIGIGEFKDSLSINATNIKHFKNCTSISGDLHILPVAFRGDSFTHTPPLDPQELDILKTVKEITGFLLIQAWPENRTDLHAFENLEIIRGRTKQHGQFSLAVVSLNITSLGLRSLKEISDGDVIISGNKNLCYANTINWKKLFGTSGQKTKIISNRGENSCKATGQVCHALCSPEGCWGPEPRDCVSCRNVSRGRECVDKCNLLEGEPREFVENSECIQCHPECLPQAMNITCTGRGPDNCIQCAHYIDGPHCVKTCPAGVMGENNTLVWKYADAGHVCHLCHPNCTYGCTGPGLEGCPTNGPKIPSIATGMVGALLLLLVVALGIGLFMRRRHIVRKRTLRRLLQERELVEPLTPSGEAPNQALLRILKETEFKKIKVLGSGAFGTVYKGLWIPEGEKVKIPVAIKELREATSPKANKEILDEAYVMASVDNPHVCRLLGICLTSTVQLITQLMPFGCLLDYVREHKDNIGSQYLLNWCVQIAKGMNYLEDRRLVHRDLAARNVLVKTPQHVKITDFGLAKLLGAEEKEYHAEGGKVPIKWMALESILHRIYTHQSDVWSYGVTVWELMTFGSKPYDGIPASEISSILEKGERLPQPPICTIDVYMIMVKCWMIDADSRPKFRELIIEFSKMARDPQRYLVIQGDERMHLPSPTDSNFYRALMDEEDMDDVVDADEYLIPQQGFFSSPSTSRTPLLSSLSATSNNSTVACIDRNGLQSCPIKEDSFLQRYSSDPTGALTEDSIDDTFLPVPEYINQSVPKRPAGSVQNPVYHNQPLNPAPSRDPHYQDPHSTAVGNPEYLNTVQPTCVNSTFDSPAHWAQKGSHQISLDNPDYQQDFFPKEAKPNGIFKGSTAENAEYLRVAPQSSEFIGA
# Procedure: as §1, §2
SMILES,GI50 [1],GI50 [2],IC50 [3],IC50 [4],IC50 [5]
"CCN1CCN(c2ccc(Nc3nc(Nc4ccccc4N(C)S(C)(=O)=O)c4cc[nH]c4n3)cc2F)CC1 [Example 8, N-(2-((2-((3-fluoro-4-(4-ethylpiperazin-1-yl)phenyl)amino)-7H-pyrrolo[2,3-d]pyrimidine-4-yl)amino)phenyl)-N-methylmethanesulfonamide]",10 nM,201 nM,,,
"CC(C)N1CCN(c2ccc(Nc3nc(Nc4ccccc4N(C)S(C)(=O)=O)c4cc[nH]c4n3)cc2F)CC1 [Example 9, N-(2-((2-((3-fluoro-4-(4-isopropylpiperazin-1-yl)phenyl)amino)-7H-pyrrolo[2,3-d]pyrimidine-4-yl)amino)phenyl)-N-methylmethanesulfonamide]",,420 nM,,,
"CCCN1CCN(c2ccc(Nc3nc(Nc4ccccc4N(C)S(C)(=O)=O)c4cc[nH]c4n3)cc2F)CC1 [Example 10, N-(2-((2-((3-fluoro-4-(4-propylpiperazin-1-yl)phenyl)amino)-7H-pyrrolo[2,3-d]pyrimidine-4-yl)amino)phenyl)-N-methylmethanesulfonamide]",,538 nM,,,
"CN(c1ccccc1Nc1nc(Nc2ccc(N3CCN(C4CC4)CC3)c(F)c2)nc2[nH]ccc12)S(C)(=O)=O [Example 11, N-(2-((2-((3-fluoro-4-(4-cyclopropylpiperazin-1-yl)phenyl)amino)-7H-pyrrolo[2,3-d]pyrimidine-4-yl)amino)phenyl)-N-methylmethanesulfonamide]",,641 nM,,,
"CN1CCN(C2CCN(c3ccc(Nc4nc(Nc5ccccc5N(C)S(C)(=O)=O)c5cc[nH]c5n4)cc3F)CC2)CC1 [Example 13, N-(2-((2-((3-fluoro-4-(4-(4-methylpiperazin-1-yl)piperidin-1-yl)phenyl)amino)-7H-pyrrolo[2,3-d]pyrimidine-4-yl)amino)phenyl)-N-methylmethanesulfonamide]",11 nM,267 nM,,,
"CCN1CCN(C2CCN(c3ccc(Nc4nc(Nc5ccccc5N(C)S(C)(=O)=O)c5cc[nH]c5n4)cc3F)CC2)CC1 [Example 14, N-(2-((2-((3-fluoro-4-(4-(4-ethylpiperazin-1-yl)piperidin-1-yl)phenyl)amino)-7H-pyrrolo[2,3-d]pyrimidine-4-yl)amino)phenyl)-N-methylmethanesulfonamide]",15 nM,126 nM,4 nM,2.9 nM,4490 nM
"CC(C)N1CCN(C2CCN(c3ccc(Nc4nc(Nc5ccccc5N(C)S(C)(=O)=O)c5cc[nH]c5n4)cc3F)CC2)CC1 [Example 15, N-(2-((2-((3-fluoro-4-(4-(4-isopropylpiperazin-1-yl)piperidin-1-yl)phenyl)amino)-7H-pyrrolo[2,3-d]pyrimidine-4-yl)amino)phenyl)-N-methylmethanesulfonamide]",,131 nM,,,
"CCCN1CCN(C2CCN(c3ccc(Nc4nc(Nc5ccccc5N(C)S(C)(=O)=O)c5cc[nH]c5n4)cc3F)CC2)CC1 [Example 16, N-(2-((2-((3-fluoro-4-(4-(4-propylpiperazin-1-yl)piperidin-1-yl)phenyl)amino)-7H-pyrrolo[2,3-d]pyrimidine-4-yl)amino)phenyl)-N-methylmethanesulfonamide]",,160 nM,4 nM,2.7 nM,1530 nM
"CN(c1ccccc1Nc1nc(Nc2ccc(N3CCC(N4CCN(C5CC5)CC4)CC3)c(F)c2)nc2[nH]ccc12)S(C)(=O)=O [Example 17, N-(2-((2-((3-fluoro-4-(4-(4-cyclopropylpiperazin-1-yl)piperidin-1-yl)phenyl)amino)-7H-pyrrolo[2,3-d]pyrimidine-4-yl)amino)phenyl)-N-methylmethanesulfonamide]",,311 nM,,,
"CCN1CCN(c2c(F)cc(Nc3nc(Nc4ccccc4N(C)S(C)(=O)=O)c4cc[nH]c4n3)cc2F)CC1 [Example 26, N-(2-((2-((4-(4-ethylpiperazin-1-yl)-3,5-difluorophenyl)amino)-7H-pyrrolo[2,3-d]pyrimidine-4-yl)amino)phenyl)-N-methylmethanesulfonamide]",,369 nM,,,

# The remaining lines, values ahead:
GI50 [1],GI50 [2],IC50 [3],IC50 [4],IC50 [5],SMILES
20 nM,,13 nM,12 nM,2180 nM,"CN1CC2(C1)CN(c1ccc(Nc3nc(Nc4ccccc4N(C)S(C)(=O)=O)c4cc[nH]c4n3)cc1F)C2 [Example 36, N-(2-((2-((3-fluoro-4-(6-methyl-2,6-diazaspiro[3.3]heptan-2-yl)phenyl)amino)-7H-pyrrolo[2,3-d]pyrimidine-4-yl)amino)phenyl)-N-methylmethanesulfonamide]"
123 nM,951 nM,,,,"CN1CCN(c2ccc(Nc3nc(Nc4ccccc4NS(C)(=O)=O)c4cc[nH]c4n3)cc2F)CC1 [Example 42, N-(2-((2-((3-fluoro-4-(4-methylpiperazin-1-yl)phenyl)amino)-7H-pyrrolo[2,3-d]pyrimidine-4-yl)amino)phenyl)methanesulfonamide]"
,858 nM,,,,"CCN1CCN(c2ccc(Nc3nc(Nc4ccccc4NS(C)(=O)=O)c4cc[nH]c4n3)cc2F)CC1 [Example 49, N-(2-((2-((4-(4-ethylpiperazin-1-yl)-3-fluorophenyl)amino)-7H-pyrrolo[2,3-d]pyrimidine-4-yl)amino)phenyl)methanesulfonamide]"
7 nM,698 nM,,,,"CCN1CCN(C2CCN(c3ccc(Nc4nc(Nc5ccccc5NS(C)(=O)=O)c5cc[nH]c5n4)cc3F)CC2)CC1 [Example 53, N-(2-((2-((4-(4-(4-ethylpiperazin-1-yl)piperidin-1-yl)-3-fluorophenyl)amino)-7H-pyrrolo[2,3-d]pyrimidine-4-yl)amino)phenyl)methanesulfonamide]"
,530 nM,,,,"CCN1CCN(C2CCN(c3ccc(Nc4nc(Nc5ccccc5N(C)S(=O)(=O)CC)c5cc[nH]c5n4)cc3F)CC2)CC1 [Example 54, N-(2-((2-((4-(4-(4-ethylpiperazin-1-yl)piperidin-1-yl)-3-fluorophenyl)amino)-7H-pyrrolo[2,3-d]pyrimidine-4-yl)amino)phenyl)-N-methylethanesulfonamide]"
,564 nM,,,,"CCN1CCC2(CCN(c3ccc(Nc4nc(Nc5ccccc5N(C)S(=O)(=O)CC)c5cc[nH]c5n4)cc3F)CC2)C1 [Example 56, N-(2-((2-((4-(2-ethyl-2,8-diazaspiro[4.5]decan-8-yl)-3-fluorophenyl)amino)-7H-pyrrolo[2,3-d]pyrimidine-4-yl)amino)phenyl)-N-methylethanesulfonamide]"
,3380 nM,,,,"CN1CCN(C2CCN(c3ccc(Nc4nc(Nc5ccccc5N(C)S(C)(=O)=O)c5ccn(C)c5n4)cc3F)CC2)CC1 [Example 65, N-(2-((2-((3-fluoro-4-(4-(4-methylpiperazin-1-yl)piperidin-1-yl)phenyl)amino)-7-methyl-7H-pyrrolo[2,3-d]pyrimidine-4-yl)amino)phenyl)-N-methylmethanesulfonamide]"
